In PubChem BioAssay (NCI):
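GI50 = concentration required for 50% inhibition of growth. TGI denotes the concentration required for complete inhibition of growth.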

How the values were obtained:
Assay in all cases: NCI tumour cell line growth inhibition, 384-well format; in the data active = GI50 below about 0.43 µM; inactive = the rest
786-0 renal = system: 786-0 renal
A498 renal = system: A498 renal
A549 NSCLC = system: A549 NSCLC
ACHN renal = system: ACHN renal
BT-549 breast = system: BT-549 breast
CAKI-1 renal = system: CAKI-1 renal
COLO 205 colon = system: COLO 205 colon
DU-145 prostate = system: DU-145 prostate
EKVX NSCLC = system: EKVX NSCLC
HCT-116 colon = system: HCT-116 colon
HCT-15 colon = system: HCT-15 colon
HL-60(TB) leukemia = system: HL-60(TB) leukemia
HOP-62 NSCLC = system: HOP-62 NSCLC
HOP-92 NSCLC = system: HOP-92 NSCLC
HS 578T breast = system: HS 578T breast
HT29 colon = system: HT29 colon
IGROV1 ovarian = system: IGROV1 ovarian
K-562 leukemia = system: K-562 leukemia
KM12 colon = system: KM12 colon
M14 melanoma = system: M14 melanoma
MALME-3M melanoma = system: MALME-3M melanoma
MCF7 breast = system: MCF7 breast
MDA-MB-231 breast = system: MDA-MB-231 breast
MDA-MB-435 melanoma = system: MDA-MB-435 melanoma
MDA-MB-468 breast = system: MDA-MB-468 breast
MOLT-4 leukemia = system: MOLT-4 leukemia
NCI-H226 lung = system: NCI-H226 lung
NCI-H23 lung = system: NCI-H23 lung
NCI-H322M lung = system: NCI-H322M lung
NCI-H460 NSCLC = system: NCI-H460 NSCLC
NCI-H522 lung = system: NCI-H522 lung
OVCAR-3 ovarian = system: OVCAR-3 ovarian
OVCAR-4 ovarian = system: OVCAR-4 ovarian
OVCAR-5 ovarian = system: OVCAR-5 ovarian
OVCAR-8 ovarian = system: OVCAR-8 ovarian
PC-3 prostate = system: PC-3 prostate
RXF 393 renal = system: RXF 393 renal
SF-268 CNS = system: SF-268 CNS
SF-295 CNS = system: SF-295 CNS
SF-539 CNS = system: SF-539 CNS
SK-MEL-2 melanoma = system: SK-MEL-2 melanoma
SK-MEL-28 melanoma = system: SK-MEL-28 melanoma
SK-MEL-5 melanoma = system: SK-MEL-5 melanoma
SK-OV-3 ovarian = system: SK-OV-3 ovarian
SN12C renal = system: SN12C renal
SNB-19 CNS = system: SNB-19 CNS
SNB-75 CNS = system: SNB-75 CNS
SR leukemia = system: SR leukemia
SW-620 colon = system: SW-620 colon
T-47D breast = system: T-47D breast
TK-10 renal = system: TK-10 renal
U251 glioblastoma = system: U251 glioblastoma
UACC-257 melanoma = system: UACC-257 melanoma
UACC-62 melanoma = system: UACC-62 melanoma
UO-31 renal = system: UO-31 renal

CC(C)N(C[C@H]1O[C@@H](n2cnc3c(N)ncnc32)[C@H](O)[C@@H]1O)C1CC(CCc2nc3ccc(C(C)(C)C)cc3[nH]2)C1 (stereo not given in full)
47.9 µM: TGI (SF-268 CNS)
inactive: GI50 ([…]-0 renal) > 100 µM | GI50 (A498 renal) > 100 µM | GI50 (A549 NSCLC) > 100 µM | GI50 (ACHN renal) > 100 µM | GI50 (BT-549 breast) 18 µM | GI50 (CAKI-1 renal) > 100 µM | GI50 (COLO 205 colon) 25.6 µM | GI50 (DU-145 prostate) > 100 µM | GI50 (EKVX NSCLC) 88.1 µM | GI50 (HCT-116 colon) 41.9 µM | GI50 (HCT-15 colon) > 100 µM | GI50 (HL-60(TB) leukemia) 13.3 µM | GI50 (HOP-62 NSCLC) > 100 µM | GI50 (HOP-92 NSCLC) 19.2 µM | GI50 (HS 578T breast) 20.5 µM | GI50 (HT29 colon) 19.1 µM | GI50 (IGROV1 ovarian) 51 µM | GI50 (K-562 leukemia) 31 µM | GI50 (KM12 colon) 39 µM | GI50 (M14 melanoma) 20 µM | GI50 (MALME-3M melanoma) 18 µM | GI50 (MCF7 breast) 20 µM | GI50 (MDA-MB-231 breast) 35.4 µM | GI50 (MDA-MB-435 melanoma) 17.9 µM | GI50 (MDA-MB-468 breast) 24.8 µM | GI50 (MOLT-4 leukemia) 18.8 µM | GI50 (NCI-H226 lung) > 100 µM | GI50 (NCI-H23 lung) 46.6 µM | GI50 (NCI-H322M lung) > 100 µM | GI50 (NCI-H460 NSCLC) 20.3 µM | GI50 (NCI-H522 lung) 20.1 µM | GI50 (OVCAR-3 ovarian) 49.6 µM | GI50 (OVCAR-4 ovarian) 79.9 µM | GI50 (OVCAR-5 ovarian) > 100 µM | GI50 (OVCAR-8 ovarian) > 100 µM | GI50 (PC-3 prostate) 47 µM | GI50 (RXF 393 renal) 25.3 µM | GI50 (SF-268 CNS) 22.9 µM | GI50 (SF-295 CNS) > 100 µM | GI50 (SF-539 CNS) 43.9 µM | GI50 (SK-MEL-2 melanoma) 15.8 µM | GI50 (SK-MEL-28 melanoma) 18 µM | GI50 (SK-MEL-5 melanoma) 23.9 µM | GI50 (SK-OV-3 ovarian) > 100 µM | GI50 (SN12C renal) > 100 µM | GI50 (SNB-19 CNS) > 100 µM | GI50 (SNB-75 CNS) 22.5 µM | GI50 (SR leukemia) 17.9 µM | GI50 (SW-620 colon) 52.3 µM | GI50 (T-47D breast) 39 µM | GI50 (TK-10 renal) 83.9 µM | GI50 (U251 glioblastoma) 41.7 µM | GI50 (UACC-257 melanoma) 18.5 µM | GI50 (UACC-62 melanoma) 16.9 µM | GI50 (UO-31 renal) > 100 µM
32.5 µM: TGI (BT-549 breast)
43 µM: TGI (NCI-H460 NSCLC)
45.2 µM: TGI (MCF7 breast)
58.6 µM: TGI (COLO 205 colon)
33.4 µM: TGI (UACC-257 melanoma)
37 µM: TGI (HS 578T breast)
32.8 µM: TGI (MOLT-4 leukemia)
69.4 µM: TGI (SK-MEL-5 melanoma)
50.1 µM: TGI (MDA-MB-468 breast)
32 µM: TGI (MALME-3M melanoma)
31.8 µM: TGI (MDA-MB-435 melanoma) | TGI (SR leukemia)
35.3 µM: TGI (HT29 colon) | TGI (NCI-H522 lung)
> 100 µM: TGI (786-0 renal) | TGI (A498 renal) | TGI (A549 NSCLC) | TGI (ACHN renal) | TGI (CAKI-1 renal) | TGI (DU-145 prostate) | TGI (EKVX NSCLC) | TGI (HCT-116 colon) | TGI (HCT-15 colon) | TGI (HOP-62 NSCLC) | TGI (IGROV1 ovarian) | TGI (K-562 leukemia) | TGI (KM12 colon) | TGI (MDA-MB-231 breast) | TGI (NCI-H226 lung) | TGI (NCI-H23 lung) | TGI (NCI-H322M lung) | TGI (OVCAR-3 ovarian) | TGI (OVCAR-4 ovarian) | TGI (OVCAR-5 ovarian) | TGI (OVCAR-8 ovarian) | TGI (PC-3 prostate) | TGI (SF-295 CNS) | TGI (SF-539 CNS) | TGI (SK-OV-3 ovarian) | TGI (SN12C renal) | TGI (SNB-19 CNS) | TGI (SW-620 colon) | TGI (T-47D breast) | TGI (TK-10 renal) | TGI (U251 glioblastoma) | TGI (UO-31 renal)
40.9 µM: TGI (HOP-92 NSCLC)
30.7 µM: TGI (UACC-62 melanoma)
37.1 µM: TGI (M14 melanoma)
26 µM: TGI (HL-60(TB) leukemia)
44.9 µM: TGI (SNB-75 CNS)
31.9 µM: TGI (SK-MEL-28 melanoma)
29.3 µM: TGI (SK-MEL-2 melanoma)
79 µM: TGI (RXF 393 renal)
